According to PMC3395614, “Functional Evolution of Mammalian Odorant Receptors” (PLoS Genetics, 2012):

Columns and labels:
h51E1 = target: T1, h51E1 (Homo sapiens, UniProt Q8TCB6); assay: cell-based; parameters: species or system Hana3A; cAMP-mediated luciferase reporter dose-response of odorant receptor orthologs and paralogs
T1 construct: gene OR51E1
From the text: (§1) Figure 6 Dose-response curves of OR orthologs and paralogs to a given ligand. (A) OR5K1 orthologs and 5 K subfamily to eugenol methyl ether. (B) OR8D1 orthologs and 8D subfamily members to 4,5-dimethyl-3-hydroxy-2,5-dihydrofuran-2-one. […] X-axis is the concentration of a given odor in Log Molar. Y-axis is normalized response (n = 3, ± S.E.M.). Human (h), chimpanzee (c) and rhesus macaque (m), mouse receptors (m+number); para indicates a receptor that is a paralog to the human reference OR. Vector control is Rho-pCI. See Figure S11 for additional dose-response data from orthologs and subfamily members. Supplementary file pgen.1002821.s018.pdf: Table S5 Comparison of dose-response curves from orthologs and paralogs. LogEC50 (M), Span (dynamic-range) for each OR is given. […] F-ratio and p-values from extra sum-of-squares test. (PDF) Click here for additional data file.  Figure 2 Response of OR orthologs to 42 chemically diverse odors. (A) Tuning curves of human, chimp and macaque OR2W1 orthologs tested against 42 odors using a cAMP-mediated luciferase assay. Odorants are ordered along the x-axis according to the response elicited from the human OR2W1, with the best ligands closer to the center. Y-axis represents the luciferase response to an odor at 100 µM (n = 3, ± S.E.). Negative values on the y-axis indicate the odor elicited an inhibitory response on OR signaling. See Figure S6 for additional tuning curves. (B) Response of chimp and macaque OR2W1 orthologs (variant responses) plotted against the human OR2W1 response using the data from (A). X-axis and y-axis are response in luciferase assay at 100 µM (n = 3, ± S.E.). The black line represents the unit-slope line. Odor abbreviations in Table S3.

human OR51L1 = human OR51L1 (Homo sapiens, UniProt Q8NGJ5); assay: cell-based; parameters: species or system Hana3A; cAMP-mediated luciferase reporter assay of odorant receptor activation, dose-response, ortholog pairs; details: ortholog set
Experimental: (§2) Figure 2 Response of OR orthologs to 42 chemically diverse odors. (A) Tuning curves of human, chimp and macaque OR2W1 orthologs tested against 42 odors using a cAMP-mediated luciferase assay. Odorants are ordered along the x-axis according to the response elicited from the human OR2W1, with the best ligands closer to the center. Y-axis represents the luciferase response to an odor at 100 µM (n = 3, ± S.E.). Negative values on the y-axis indicate the odor elicited an inhibitory response on OR signaling. See Figure S6 for additional tuning curves. (B) Response of chimp and macaque OR2W1 orthologs (variant responses) plotted against the human OR2W1 response using the data from (A). X-axis and y-axis are response in luciferase assay at 100 µM (n = 3, ± S.E.). The black line represents the unit-slope line. Odor abbreviations in Table S3. We next wanted to examine the functional changes in sensitivity of orthologs to individual ligands by testing each ortholog across a range of concentrations. We selected a single odor for a given OR to construct a representative dose-response curve, fit the data to a sigmoid curve, and then compared the response of the human allele against the primate orthologs and the mouse allele with the rat ortholog using an extra sum of squares test. […]

h10G3 = target: T2, h10G3 (Homo sapiens, UniProt Q8NGC4); assay: cell-based; parameters: species or system Hana3A; cAMP-mediated luciferase reporter dose-response of odorant receptor orthologs and paralogs
T2 construct: gene OR10G3
From the text: as §1

h10G4 = target: T3, h10G4 (Homo sapiens, UniProt Q8NGN3); assay: cell-based; parameters: species or system Hana3A; cAMP-mediated luciferase reporter dose-response of odorant receptor orthologs and paralogs
T3 construct: gene OR10G4
From the text: as §1

h10G9 = target: T4, h10G9 (Homo sapiens, UniProt Q8NGN4); assay: cell-based; parameters: species or system Hana3A; cAMP-mediated luciferase reporter dose-response of odorant receptor orthologs and paralogs
T4 construct: gene OR10G9
From the text: as §1

h56A1 = target: T5, h56A1 (Homo sapiens, UniProt Q8NGH5); assay: cell-based; parameters: species or system Hana3A; cAMP-mediated luciferase reporter dose-response of odorant receptor orthologs and paralogs
T5 construct: gene OR56A1
From the text: as §1

h56A4 = target: T6, h56A4 (Homo sapiens, UniProt Q8NGH8); assay: cell-based; parameters: species or system Hana3A; cAMP-mediated luciferase reporter dose-response of odorant receptor orthologs and paralogs
T6 construct: gene OR56A4
From the text: as §1

h56A5 = target: T7, h56A5 (Homo sapiens, UniProt P0C7T3); assay: cell-based; parameters: species or system Hana3A; cAMP-mediated luciferase reporter dose-response of odorant receptor orthologs and paralogs
T7 construct: gene OR56A5
From the text: as §1

chimp OR5K1 = target: T8, chimp OR5K1 (Pan troglodytes, UniProt A0A2J8MY22); assay: cAMP-mediated CRE-luciferase reporter dose-response, Hana3A cells; assay type: cell-based; details: agonist; human RTP1S and M3 receptor co-expressed; odor 10 nM to 10 mM
T8 construct: gene LOC470870; full-length ORF from genomic DNA, N-terminal Rho-tag, Hana3A cells with human RTP1S

OR2J2 (human) [1] = target: T9, OR2J2 (human) (Homo sapiens, UniProt O76002); assay: cell-based; parameters: species or system Hana3A; cAMP-mediated luciferase reporter dose-response of odorant receptor orthologs and paralogs
T9 construct: full-length ORF from genomic DNA, N-terminal Rho-tag, Hana3A cells with human RTP1S
T9 sequence (O76002 1-312): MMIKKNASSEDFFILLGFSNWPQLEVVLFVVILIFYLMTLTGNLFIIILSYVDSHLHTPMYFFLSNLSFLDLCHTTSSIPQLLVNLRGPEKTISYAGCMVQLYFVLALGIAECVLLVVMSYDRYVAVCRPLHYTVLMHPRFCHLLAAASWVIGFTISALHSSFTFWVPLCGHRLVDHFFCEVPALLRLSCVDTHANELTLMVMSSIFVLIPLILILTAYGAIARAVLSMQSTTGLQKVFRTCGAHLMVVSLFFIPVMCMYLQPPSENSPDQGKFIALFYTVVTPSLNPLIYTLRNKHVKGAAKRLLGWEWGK
From the text: as §1

h2A25 = target: T10, h2A25 (Homo sapiens, UniProt A4D2G3); assay: cell-based; parameters: species or system Hana3A; cAMP-mediated luciferase reporter dose-response of odorant receptor orthologs and paralogs
T10 construct: gene OR2A25
From the text: as §1

h2J1 = target: T11, h2J1 (Homo sapiens, UniProt Q9GZK6); assay: cell-based; parameters: species or system Hana3A; cAMP-mediated luciferase reporter dose-response of odorant receptor orthologs and paralogs
T11 construct: gene OR2J1
From the text: as §1

h2J3 = target: T12, h2J3 (Homo sapiens, UniProt O76001); assay: cell-based; parameters: species or system Hana3A; cAMP-mediated luciferase reporter dose-response of odorant receptor orthologs and paralogs
T12 construct: gene OR2J3
From the text: as §1

OR2J2 (human) [2] = target: T9, OR2J2 (human); assay: cAMP-mediated CRE-luciferase reporter dose-response, Hana3A cells; assay type: cell-based; details: agonist; human RTP1S and M3 receptor co-expressed; odor 10 nM to 10 mM
h2B11 = target: T13, h2B11 (Homo sapiens, UniProt Q5JQS5); assay: cell-based; parameters: species or system Hana3A; cAMP-mediated luciferase reporter dose-response of odorant receptor orthologs and paralogs
T13 construct: gene OR2B11
From the text: as §1

h5P3 = target: T14, h5P3 (Homo sapiens, UniProt Q8WZ94); assay: cell-based; parameters: species or system Hana3A; cAMP-mediated luciferase reporter dose-response of odorant receptor orthologs and paralogs
T14 construct: gene OR5P3
From the text: as §1

mouse MOR256-17 = target: T15, mouse MOR256-17 (Mus musculus, UniProt P23275); assay: cell-based; parameters: species or system Hana3A; cAMP-mediated luciferase reporter assay of odorant receptor activation, dose-response, ortholog pairs; details: ortholog set
T15 construct: gene Or2c1
Experimental: as §2

chimp OR8K3 [3] = target: T16, chimp OR8K3 (Pan troglodytes, UniProt A0A2J8LC19); assay: cAMP-mediated CRE-luciferase reporter dose-response, Hana3A cells; assay type: cell-based; details: agonist; human RTP1S and M3 receptor co-expressed; odor 10 nM to 10 mM
T16 construct: gene LOC466557; full-length ORF from genomic DNA, N-terminal Rho-tag, Hana3A cells with human RTP1S

chimp OR8K3 [4] = target: T16, chimp OR8K3; assay: cell-based; parameters: species or system Hana3A; cAMP-mediated luciferase reporter dose-response of odorant receptor orthologs and paralogs
From the text: as §1

h10J1 = target: T17, h10J1 (Homo sapiens, UniProt P30954); assay: cell-based; parameters: species or system Hana3A; cAMP-mediated luciferase reporter dose-response of odorant receptor orthologs and paralogs
T17 construct: gene OR10J1
From the text: as §1

h10J5 = target: T18, h10J5 (Homo sapiens, UniProt Q8NHC4); assay: cell-based; parameters: species or system Hana3A; cAMP-mediated luciferase reporter dose-response of odorant receptor orthologs and paralogs
T18 construct: gene OR10J5
From the text: as §1

MOR267-13 = target: T19, MOR267-13 (Mus musculus, UniProt Q62007); assay: cell-based; parameters: species or system Hana3A; cAMP-mediated luciferase reporter assay of odorant receptor activation, dose-response, orthologs and paralogs; details: ortholog and paralog set
T19 construct: gene Or10j5
Experimental: Figure 2 Response of OR orthologs to 42 chemically diverse odors. (A) Tuning curves of human, chimp and macaque OR2W1 orthologs tested against 42 odors using a cAMP-mediated luciferase assay. Odorants are ordered along the x-axis according to the response elicited from the human OR2W1, with the best ligands closer to the center. Y-axis represents the luciferase response to an odor at 100 µM (n = 3, ± S.E.). Negative values on the y-axis indicate the odor elicited an inhibitory response on OR signaling. See Figure S6 for additional tuning curves. (B) Response of chimp and macaque OR2W1 orthologs (variant responses) plotted against the human OR2W1 response using the data from (A). X-axis and y-axis are response in luciferase assay at 100 µM (n = 3, ± S.E.). The black line represents the unit-slope line. Odor abbreviations in Table S3. Figure 6 Dose-response curves of OR orthologs and paralogs to a given ligand. (A) OR5K1 orthologs and 5 K subfamily to eugenol methyl ether. (B) OR8D1 orthologs and 8D subfamily members to 4,5-dimethyl-3-hydroxy-2,5-dihydrofuran-2-one. […] X-axis is the concentration of a given odor in Log Molar. Y-axis is normalized response (n = 3, ± S.E.M.). Human (h), chimpanzee (c) and rhesus macaque (m), mouse receptors (m+number); para indicates a receptor that is a paralog to the human reference OR. Vector control is Rho-pCI. […]

chimp OR8D1 [5] = target: T20, chimp OR8D1 (Pan troglodytes, UniProt A0A2J8N1S1); assay: cAMP-mediated CRE-luciferase reporter dose-response, Hana3A cells; assay type: cell-based; details: agonist; human RTP1S and M3 receptor co-expressed; odor 10 nM to 10 mM
T20 construct: gene LOC466828; full-length ORF from genomic DNA, N-terminal Rho-tag, Hana3A cells with human RTP1S

chimp OR8D1 [6] = target: T20, chimp OR8D1; assay: cell-based; parameters: species or system Hana3A; cAMP-mediated luciferase reporter dose-response of odorant receptor orthologs and paralogs
From the text: as §1

T20 sequence (A0A2J8N1S1 1-308): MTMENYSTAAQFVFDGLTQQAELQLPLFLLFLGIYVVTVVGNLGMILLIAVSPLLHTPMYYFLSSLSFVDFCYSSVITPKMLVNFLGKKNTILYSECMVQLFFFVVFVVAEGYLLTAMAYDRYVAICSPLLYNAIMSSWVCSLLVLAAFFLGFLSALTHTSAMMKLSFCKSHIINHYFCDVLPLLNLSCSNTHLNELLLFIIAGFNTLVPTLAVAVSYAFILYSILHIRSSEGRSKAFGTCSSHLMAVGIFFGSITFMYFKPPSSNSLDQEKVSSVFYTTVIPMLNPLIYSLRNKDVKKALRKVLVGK
T11 sequence (Q9GZK6 whole entry): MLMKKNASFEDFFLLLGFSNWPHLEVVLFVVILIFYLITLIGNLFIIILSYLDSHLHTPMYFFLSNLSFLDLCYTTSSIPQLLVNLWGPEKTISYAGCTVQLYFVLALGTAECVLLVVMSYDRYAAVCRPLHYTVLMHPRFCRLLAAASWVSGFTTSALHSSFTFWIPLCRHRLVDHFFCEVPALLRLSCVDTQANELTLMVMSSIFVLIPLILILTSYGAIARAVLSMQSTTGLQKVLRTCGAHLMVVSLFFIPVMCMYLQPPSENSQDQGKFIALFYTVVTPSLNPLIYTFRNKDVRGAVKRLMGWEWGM
T16 sequence (A0A2J8LC19 1-312): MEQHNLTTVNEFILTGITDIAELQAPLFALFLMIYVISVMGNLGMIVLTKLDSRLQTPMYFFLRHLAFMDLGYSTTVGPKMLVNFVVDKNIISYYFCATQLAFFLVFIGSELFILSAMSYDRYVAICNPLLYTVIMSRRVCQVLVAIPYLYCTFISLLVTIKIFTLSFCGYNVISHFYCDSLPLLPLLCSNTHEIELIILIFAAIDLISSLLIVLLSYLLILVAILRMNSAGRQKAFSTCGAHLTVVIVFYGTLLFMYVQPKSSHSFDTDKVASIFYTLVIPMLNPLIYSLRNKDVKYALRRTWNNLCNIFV
T2 sequence (Q8NGC4 whole entry): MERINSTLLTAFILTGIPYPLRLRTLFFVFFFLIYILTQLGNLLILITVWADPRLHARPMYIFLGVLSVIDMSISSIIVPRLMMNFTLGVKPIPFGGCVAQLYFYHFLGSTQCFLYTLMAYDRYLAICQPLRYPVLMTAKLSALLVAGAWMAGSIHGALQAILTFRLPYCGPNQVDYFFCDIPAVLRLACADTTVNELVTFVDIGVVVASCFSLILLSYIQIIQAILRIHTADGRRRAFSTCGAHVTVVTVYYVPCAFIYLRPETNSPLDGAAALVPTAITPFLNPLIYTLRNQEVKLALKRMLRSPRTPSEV
T12 sequence (O76001 whole entry): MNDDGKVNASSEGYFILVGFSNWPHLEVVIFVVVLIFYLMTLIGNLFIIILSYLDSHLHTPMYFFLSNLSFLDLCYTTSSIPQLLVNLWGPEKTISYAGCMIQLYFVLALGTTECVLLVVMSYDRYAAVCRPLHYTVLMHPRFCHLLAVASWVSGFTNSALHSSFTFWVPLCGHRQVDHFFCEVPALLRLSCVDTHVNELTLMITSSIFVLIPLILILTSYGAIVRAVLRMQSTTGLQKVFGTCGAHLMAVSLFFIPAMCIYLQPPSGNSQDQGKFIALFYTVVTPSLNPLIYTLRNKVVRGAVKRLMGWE
T4 sequence (Q8NGN4 whole entry): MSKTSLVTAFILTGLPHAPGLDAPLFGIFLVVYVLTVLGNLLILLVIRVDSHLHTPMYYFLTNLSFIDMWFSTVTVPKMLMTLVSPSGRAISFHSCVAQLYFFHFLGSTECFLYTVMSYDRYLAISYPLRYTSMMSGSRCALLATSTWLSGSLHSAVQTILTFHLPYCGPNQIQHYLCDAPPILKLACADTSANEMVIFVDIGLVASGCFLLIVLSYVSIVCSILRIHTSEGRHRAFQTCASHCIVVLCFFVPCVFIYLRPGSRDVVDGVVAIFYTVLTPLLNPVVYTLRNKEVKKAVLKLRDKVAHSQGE
T10 sequence (A4D2G3 whole entry): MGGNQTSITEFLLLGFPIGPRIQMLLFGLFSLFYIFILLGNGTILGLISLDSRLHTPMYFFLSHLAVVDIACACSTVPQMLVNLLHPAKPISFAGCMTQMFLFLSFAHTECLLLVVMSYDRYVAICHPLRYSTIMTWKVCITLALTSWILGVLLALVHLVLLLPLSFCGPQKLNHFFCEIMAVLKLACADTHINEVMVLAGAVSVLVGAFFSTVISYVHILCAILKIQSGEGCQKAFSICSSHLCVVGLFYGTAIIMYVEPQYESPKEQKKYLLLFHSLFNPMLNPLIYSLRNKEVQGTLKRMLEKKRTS
T19 sequence (Q62007 whole entry): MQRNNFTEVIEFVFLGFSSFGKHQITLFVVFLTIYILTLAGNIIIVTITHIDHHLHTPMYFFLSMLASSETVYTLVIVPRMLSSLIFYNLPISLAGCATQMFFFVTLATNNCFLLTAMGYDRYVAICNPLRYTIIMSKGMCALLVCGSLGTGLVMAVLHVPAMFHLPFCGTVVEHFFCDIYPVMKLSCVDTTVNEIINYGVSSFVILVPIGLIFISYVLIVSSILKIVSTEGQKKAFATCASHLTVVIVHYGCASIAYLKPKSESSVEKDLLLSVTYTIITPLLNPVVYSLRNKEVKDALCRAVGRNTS
T17 sequence (P30954 whole entry): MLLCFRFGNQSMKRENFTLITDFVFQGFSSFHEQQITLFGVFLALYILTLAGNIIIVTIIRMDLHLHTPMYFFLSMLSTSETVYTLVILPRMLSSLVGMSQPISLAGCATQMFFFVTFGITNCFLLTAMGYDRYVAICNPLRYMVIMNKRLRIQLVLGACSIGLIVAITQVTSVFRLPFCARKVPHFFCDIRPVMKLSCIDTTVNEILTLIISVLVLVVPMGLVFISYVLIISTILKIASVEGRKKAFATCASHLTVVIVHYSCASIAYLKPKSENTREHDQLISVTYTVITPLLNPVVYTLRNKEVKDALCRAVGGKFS
T1 sequence (Q8TCB6 whole entry): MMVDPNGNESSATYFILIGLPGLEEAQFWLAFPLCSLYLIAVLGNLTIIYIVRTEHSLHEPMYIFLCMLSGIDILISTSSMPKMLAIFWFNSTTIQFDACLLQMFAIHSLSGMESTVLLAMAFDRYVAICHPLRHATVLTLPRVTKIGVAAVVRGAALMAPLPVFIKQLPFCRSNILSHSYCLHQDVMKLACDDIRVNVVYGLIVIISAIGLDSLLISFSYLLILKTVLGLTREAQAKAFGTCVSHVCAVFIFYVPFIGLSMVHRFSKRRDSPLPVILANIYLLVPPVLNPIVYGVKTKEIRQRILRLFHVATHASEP
Chain of human OR51L1 (Q8NGJ5 whole entry): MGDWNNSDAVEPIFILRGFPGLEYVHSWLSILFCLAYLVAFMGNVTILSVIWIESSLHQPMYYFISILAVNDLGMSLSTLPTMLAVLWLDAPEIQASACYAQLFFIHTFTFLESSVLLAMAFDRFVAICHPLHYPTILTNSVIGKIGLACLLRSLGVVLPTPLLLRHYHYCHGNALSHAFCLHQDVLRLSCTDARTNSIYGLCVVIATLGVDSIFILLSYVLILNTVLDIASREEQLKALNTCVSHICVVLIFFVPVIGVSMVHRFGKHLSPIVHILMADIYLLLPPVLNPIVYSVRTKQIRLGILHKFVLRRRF
T8 sequence (A0A2J8MY22 1-308): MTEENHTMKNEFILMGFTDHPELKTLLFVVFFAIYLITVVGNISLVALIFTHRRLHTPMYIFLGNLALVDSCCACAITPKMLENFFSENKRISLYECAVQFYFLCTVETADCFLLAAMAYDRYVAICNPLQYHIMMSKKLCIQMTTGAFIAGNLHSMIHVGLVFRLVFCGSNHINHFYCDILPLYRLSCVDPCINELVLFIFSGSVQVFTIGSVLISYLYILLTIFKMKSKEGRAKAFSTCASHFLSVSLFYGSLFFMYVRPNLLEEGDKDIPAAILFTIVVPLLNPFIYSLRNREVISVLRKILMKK
T13 sequence (Q5JQS5 whole entry): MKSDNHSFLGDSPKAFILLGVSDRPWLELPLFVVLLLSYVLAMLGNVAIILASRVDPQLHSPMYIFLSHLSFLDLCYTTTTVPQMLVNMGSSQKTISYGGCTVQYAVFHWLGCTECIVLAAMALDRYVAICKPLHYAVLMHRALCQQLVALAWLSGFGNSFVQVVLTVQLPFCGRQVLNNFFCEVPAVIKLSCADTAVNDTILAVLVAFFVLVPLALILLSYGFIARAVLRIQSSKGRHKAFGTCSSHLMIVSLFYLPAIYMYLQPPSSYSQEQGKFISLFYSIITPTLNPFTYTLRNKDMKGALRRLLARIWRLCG
T7 sequence (P0C7T3 whole entry): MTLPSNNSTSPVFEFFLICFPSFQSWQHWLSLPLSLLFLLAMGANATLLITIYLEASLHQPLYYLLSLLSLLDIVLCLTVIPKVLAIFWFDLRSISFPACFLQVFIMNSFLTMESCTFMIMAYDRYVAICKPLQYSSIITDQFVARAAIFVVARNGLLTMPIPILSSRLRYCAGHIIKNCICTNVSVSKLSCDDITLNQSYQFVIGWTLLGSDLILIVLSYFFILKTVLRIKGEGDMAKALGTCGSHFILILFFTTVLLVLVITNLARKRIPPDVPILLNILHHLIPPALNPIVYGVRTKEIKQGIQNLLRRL
T6 sequence (Q8NGH8 whole entry): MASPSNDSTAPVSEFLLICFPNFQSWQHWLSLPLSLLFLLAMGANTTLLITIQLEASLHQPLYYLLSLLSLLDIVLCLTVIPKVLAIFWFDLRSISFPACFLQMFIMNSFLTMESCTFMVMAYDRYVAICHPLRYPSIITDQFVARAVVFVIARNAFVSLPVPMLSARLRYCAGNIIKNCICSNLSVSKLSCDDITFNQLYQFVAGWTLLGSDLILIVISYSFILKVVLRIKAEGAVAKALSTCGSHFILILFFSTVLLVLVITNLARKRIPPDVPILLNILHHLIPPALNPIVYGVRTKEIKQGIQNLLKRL

CCCC(=O)O [butyric acid]
EC50 (h51E1): 57.5 µM

C=CCOC(=O)Cc1ccccc1 [allyl phenyl acetate]
EC50 (human OR51L1): 9.12 µM

C=CCc1ccc(O)c(OC)c1 [eugenol]
EC50 (h10G3): 132 µM

CCOc1cc(C=O)ccc1O [ethyl vanillin]
EC50 (h10G3): 41.7 µM
EC50 (h10G4): 40.7 µM
EC50 (h10G9): 537 µM

CCCCCCCCCC=O [decyl aldehyde]
EC50 (h56A1): 575 µM
EC50 (h56A4): 191 µM
EC50 (h56A5): 162 µM

C=CCc1ccc(OC)c(OC)c1 [eugenol methyl ether]
LogEC50 (chimp OR5K1): human OR5K1 is hyperfunctional to both chimp and macaque OR5K1 orthologs

CC(=O)OC/C=C(\C)CCC=C(C)C [geranyl acetate]
EC50 (OR2J2 (human) [1]): 42.7 µM
EC50 (h2A25): 9.55 µM
EC50 (h2J1): 479 µM
EC50 (h2J3): 162 µM

CCCCCCCCO [1-octanol]
LogEC50 (OR2J2 (human) [2]): OR2J2 orthologs and 2J subfamily members to 1-octanol
EC50 (OR2J2 (human) [1]): 7.41 µM
EC50 (h2J1): 112 µM
EC50 (h2J3): 1.86 µM

O=c1ccc2ccccc2o1 [coumarin]
EC50 (h2B11): 72.4 µM
EC50 (h5P3): 2950 nM
EC50 (mouse MOR256-17): 44.7 µM

CC(C)[C@H]1CC[C@H](C)C[C@@H]1O [(+)-menthol]
LogEC50 (chimp OR8K3 [3]): human and chimp OR8K3 orthologs are indistinguishable in their response to (+)-menthol
EC50 (chimp OR8K3 [4]): 9.12 µM

CC(C)(O)CCCC1=CCC(C=O)CC1 (stereo not shown) [lyral]
EC50 (h10J1): 724 µM
EC50 (h10J5): 47.9 µM
EC50 (MOR267-13): 20.9 µM

CC1=C(O)C(=O)OC1C (stereo not shown) [4,5-dimethyl-3-hydroxy-2,5-dihydrofuran-2-one]
LogEC50 (chimp OR8D1 [5]): Human OR8D1 is hyperfunctional to chimp and macaque OR8D1 orthologs
EC50 (chimp OR8D1 [6]): 18.6 µM
